Results on 24 molecules are retold here after patent US8846698B2, “Pyrrolo[2,3-d]pyrimidine tropomysin-related kinase inhibitors” (Pfizer Limited, priority 2011, dated 2014).

One may read the IC50 as the concentration that gives 50% inhibition.

TRKA, sequence (P04629 441-796): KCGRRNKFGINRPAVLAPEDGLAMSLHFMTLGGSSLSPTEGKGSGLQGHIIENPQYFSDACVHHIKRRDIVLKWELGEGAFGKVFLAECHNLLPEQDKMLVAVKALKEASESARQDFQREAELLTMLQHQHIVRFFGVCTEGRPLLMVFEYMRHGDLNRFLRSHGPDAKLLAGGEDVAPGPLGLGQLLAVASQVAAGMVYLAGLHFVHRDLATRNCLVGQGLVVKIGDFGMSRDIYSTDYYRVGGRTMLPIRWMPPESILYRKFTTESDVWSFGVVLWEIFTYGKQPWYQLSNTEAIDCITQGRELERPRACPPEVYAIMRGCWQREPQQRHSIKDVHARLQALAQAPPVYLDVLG

This assay addresses TRKA (Homo sapiens (Human), UniProt P04629). The assay can be described thus: Isolated TRK enzyme assay (HTRF KinEASE-TK), TRKA. To be noted: read-out: Trka enzyme (IC50). The assay is classed as biochemical. On the technique in general: In TR-FRET formats the signal depends on donor and acceptor labels being close together.
As for `Cn1cc(C(=O)c2cncc(NC(=O)COc3ccccc3OC(F)(F)F)c2)c2cncnc21` [Example 325, N-{5-[(7-methyl-7H-pyrrolo[2,3-d]pyrimidin-5-yl)carbonyl]pyridin-3-yl}-2-[2-(trifluoromethoxy)phenoxy]acetamide], the IC50 stood at 0.111 µM.

As for `Cc1ccccc1CCC(=O)Nc1cncc(C(=O)c2cn(C)c3ncncc23)c1` [Example 326, 3-(2-methylphenyl)-N-{5-[(7-methyl-7H-pyrrolo[2,3-d]pyrimidin-5-yl)carbonyl]pyridin-3-yl}propanamide], the IC50 amounted to 2.98 µM.

Regarding `Cn1cc(C(=O)c2cncc(NC(=O)CCc3ccccc3F)c2)c2cncnc21` [Example 327, 3-(2-fluorophenyl)-N-{5-[(7-methyl-7H-pyrrolo[2,3-d]pyrimidin-5-yl)carbonyl]pyridin-3-yl}propanamide], the IC50 turned out to be 3.1 µM.

As for `Cn1cc(C(=O)c2cncc(NC(=O)CCc3ccc(F)cc3)c2)c2cncnc21` [Example 328, 3-(4-fluorophenyl)-N-{5-[(7-methyl-7H-pyrrolo[2,3-d]pyrimidin-5-yl)carbonyl]pyridin-3-yl}propanamide], the IC50 worked out at 3.1 µM.

Consider `Cn1cc(C(=O)c2cncc(NC(=O)CCc3ccccc3)c2)c2cncnc21` [Example 329, N-{5-[(7-methyl-7H-pyrrolo[2,3-d]pyrimidin-5-yl)carbonyl]pyridin-3-yl}-3-phenylpropanamide], for which the IC50 stood at 9.81 µM.

For `Cc1ccc(CCC(=O)Nc2cncc(C(=O)c3cn(C)c4ncncc34)c2)cc1` [Example 330, 3-(4-methylphenyl)-N-{5-[(7-methyl-7H-pyrrolo[2,3-d]pyrimidin-5-yl)carbonyl]pyridin-3-yl}propanamide], the IC50 turned out to be 3.1 µM.

Consider `Cn1cc(C(=O)c2cncc(NC(=O)Cc3ccc(NS(=O)(=O)C(F)(F)F)cc3)c2)c2cncnc21` [Example 331, N-{5-[(7-methyl-7H-pyrrolo[2,3-d]pyrimidin-5-yl)carbonyl]pyridin-3-yl}-2-(4-{[(trifluoromethyl)sulfonyl]amino}phenyl)acetamide], for which the IC50 came to 9.81 µM.

With `Cn1cc(C(=O)c2cncc(NC(=O)COc3ccccc3)c2)c2cncnc21` [Example 332, N-{5-[(7-methyl-7H-pyrrolo[2,3-d]pyrimidin-5-yl)carbonyl]pyridin-3-yl}-2-phenoxyacetamide], the IC50 was 2.18 µM.

On to `COCc1ccc(CC(=O)Nc2cncc(C(=O)c3cn(C)c4ncncc34)c2)cc1` [Example 333, 2-[4-(methoxymethyl)phenyl]-N-{5-[(7-methyl-7H-pyrrolo[2,3-d]pyrimidin-5-yl)carbonyl]pyridin-3-yl}acetamide], for which the IC50 amounted to 9.8 µM.

For `Cn1cc(C(=O)c2cncc(NC(=O)COc3ccc(F)cc3)c2)c2cncnc21` [Example 334, 2-(4-fluorophenoxy)-N-{5-[(7-methyl-7H-pyrrolo[2,3-d]pyrimidin-5-yl)carbonyl]pyridin-3-yl}acetamide], the IC50 worked out at 1.55 µM.

As for `Cn1cc(C(=O)c2cncc(NC(=O)C3(c4ccccc4)CC3)c2)c2cncnc21` [Example 336, N-{5-[(7-methyl-7H-pyrrolo[2,3-d]pyrimidin-5-yl)carbonyl]pyridin-3-yl}-1-phenylcyclopropanecarboxamide], the IC50 was determined as 9.8 µM.

`Cn1cc(C(=O)c2cncc(NC(=O)C3Cc4ccccc4C3)c2)c2cncnc21` [Example 337, N-{5-[(7-methyl-7H-pyrrolo[2,3-d]pyrimidin-5-yl)carbonyl]pyridin-3-yl}indane-2-carboxamide]: the IC50 turned out to be 4.28 µM.

For the molecule `C[C@@H](C(=O)Nc1cncc(C(=O)c2cn(C)c3ncncc23)c1)c1ccccc1` [Example 338, (2R)—N-{5-[(7-methyl-7H-pyrrolo[2,3-d]pyrimidin-5-yl)carbonyl]pyridin-3-yl}-2-phenylpropanamide], the IC50 amounted to 2.73 µM.

In the case of `CC(C)n1cc(C(=O)c2cncc(NC(=O)C(CO)c3ccccc3)c2)c2cncnc21` (stereo not drawn) [Example 339, 3-hydroxy-2-phenyl-N-(5-{[7-(propan-2-yl)-7H-pyrrolo[2,3-d]pyrimidin-5-yl]carbonyl}pyridin-3-yl)propanamide], the IC50 is 0.251 µM.

As to `COc1ccc2c(ccn2CC(=O)Nc2cncc(C(=O)c3cn(C(C)C)c4ncncc34)c2)c1` [Example 340, N-{5-[(7-isopropyl-7H-pyrrolo[2,3-d]pyrimidin-5-yl)carbonyl]-pyridin-3-yl}-2-(5-methoxy-1H-indol-1-yl)acetamide], the IC50 was determined as 0.451 µM.

Take `CC(C)n1cc(C(=O)c2cncc(NC(=O)c3cccc(Cl)c3)c2)c2cncnc21` [Example 343, 3-chloro-N-(5-{[7-(propan-2-yl)-7H-pyrrolo[2,3-d]pyrimidin-5-yl]carbonyl}pyridin-3-yl)benzamide]: the IC50 was determined as 0.0539 µM.

Regarding `CC(C)n1cc(C(=O)c2cncc(NC(=O)c3ccc(Cl)cc3)c2)c2cncnc21` [Example 344, 4-chloro-N-(5-{[7-(propan-2-yl)-7H-pyrrolo[2,3-d]pyrimidin-5-yl]carbonyl}pyridin-3-yl)benzamide], the IC50 was found to be 0.326 µM.

In the case of `CC(C)n1cc(C(=O)c2cncc(NC(=O)c3ccc(C(F)(F)F)cc3)c2)c2cncnc21` [Example 345, N-(5-{[7-(propan-2-yl)-7H-pyrrolo[2,3-d]pyrimidin-5-yl]carbonyl}pyridin-3-yl)-4-(trifluoromethyl)benzamide], the IC50 came out at 0.362 µM.

On to `CC(C)n1cc(C(=O)c2cncc(NC(=O)c3ccc(OC(F)(F)F)cc3)c2)c2cncnc21` [Example 346, N-(5-{[7-(propan-2-yl)-7H-pyrrolo[2,3-d]pyrimidin-5-yl]carbonyl}pyridin-3-yl)-4-(trifluoromethoxy)benzamide], for which the IC50 is 0.253 µM.

For the molecule `CC(C)n1cc(C(=O)c2cncc(NC(=O)COc3ccccc3C#N)c2)c2cncnc21` [Example 347, 2-(2-cyanophenoxy)-N-(5-{[7-(propan-2-yl)-7H-pyrrolo[2,3-d]pyrimidin-5-yl]carbonyl}pyridin-3-yl)acetamide], the IC50 was found to be 0.155 µM.

`CC(C)n1cc(C(=O)c2cncc(NC(=O)COc3ccc(OC(F)(F)F)cc3)c2)c2cncnc21` [Example 348, N-(5-{[7-(propan-2-yl)-7H-pyrrolo[2,3-d]pyrimidin-5-yl]carbonyl}pyridin-3-yl)-2-[4-(trifluoromethoxy)phenoxy]acetamide]: the IC50 is 0.0366 µM.

Take `CC(C)n1cc(C(=O)c2cncc(NC(=O)C(N)c3ccc(Cl)cc3)c2)c2cncnc21` (stereo not drawn) [Example 350, 2-amino-2-(4-chlorophenyl)-N-(5-(7-isopropyl-7H-pyrrolo[2,3-d]pyrimidine-5-carbonyl)pyridin-3-yl)acetamide]: the IC50 was determined as 0.153 µM.

`CC(C)(CO)n1cc(C(=O)c2cncc(NC(=O)Cc3ccc(C#N)cn3)c2)c2cnc(N)nc21` [Example 351, N-{5-[2-Amino-7-(2-hydroxy-1,1-dimethyl-ethyl)-7H-pyrrolo[2,3-d]pyrimidine-5-carbonyl]-pyridin-3-yl}-2-(5-cyano-pyridin-2-yl)-acetamide]: the IC50 is 0.0211 µM.

For `CC(C)n1cc(C(=O)c2cncc(NC(=O)Cc3cn(C4CC4)nc3C(F)(F)F)c2)c2cncnc21` [Example 352, 2-(1-Cyclopropyl-3-trifluoromethyl-1H-pyrazol-4-yl)-N-[5-(7-isopropyl-7H-pyrrolo[2,3-d]pyrimidine-5-carbonyl)-pyridin-3-yl]-acetamide], the IC50 was 0.0626 µM.
